The results in this text go back to ChEMBL document CHEMBL5442219.

What all share (conditions): Compound concentration 10 µM
The target in experiment [1] is Kappa-type opioid receptor (Homo sapiens) (UniProt P41145).
Description: PDSP Primary Binding target: OPRK1 - Compounds are tested at 10 uM concentration, plate are incubated at room temperature in the dark for 90 minutes. Reaction are stopped by vacuum filtration onto 0.3% polyethyleneimine soaked filter mats using Filtermate harvester. Scintilation cocktail is then melted onto microwave-dried filters on a hot plate and the radio activity is counted in Microbia counter.
Experiment [2] concerns the target T1, 5-hydroxytryptamine receptor 2C (Homo sapiens) (UniProt P28335).
T1 sequence (whole entry): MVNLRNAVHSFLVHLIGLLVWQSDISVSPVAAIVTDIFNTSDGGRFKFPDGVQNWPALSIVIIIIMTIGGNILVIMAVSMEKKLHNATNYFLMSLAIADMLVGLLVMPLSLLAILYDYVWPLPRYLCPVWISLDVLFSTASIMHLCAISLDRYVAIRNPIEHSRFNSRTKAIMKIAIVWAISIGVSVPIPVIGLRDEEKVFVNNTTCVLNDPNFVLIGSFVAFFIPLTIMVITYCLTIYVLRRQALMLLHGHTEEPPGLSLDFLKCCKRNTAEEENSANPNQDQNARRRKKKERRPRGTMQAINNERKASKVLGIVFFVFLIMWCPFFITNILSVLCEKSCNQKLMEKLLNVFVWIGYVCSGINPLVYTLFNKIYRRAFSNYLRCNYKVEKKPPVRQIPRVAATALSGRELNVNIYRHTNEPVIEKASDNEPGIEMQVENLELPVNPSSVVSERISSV
Description: PDSP Primary Binding target: HTR2C - Compounds are tested at 10 uM concentration, plate are incubated at room temperature in the dark for 90 minutes. Reaction are stopped by vacuum filtration onto 0.3% polyethyleneimine soaked filter mats using Filtermate harvester. Scintilation cocktail is then melted onto microwave-dried filters on a hot plate and the radio activity is counted in Microbia counter.

Experiment [3] concerns the target T2, 5-hydroxytryptamine receptor 1A (Homo sapiens) (UniProt P08908).
T2 sequence (whole entry): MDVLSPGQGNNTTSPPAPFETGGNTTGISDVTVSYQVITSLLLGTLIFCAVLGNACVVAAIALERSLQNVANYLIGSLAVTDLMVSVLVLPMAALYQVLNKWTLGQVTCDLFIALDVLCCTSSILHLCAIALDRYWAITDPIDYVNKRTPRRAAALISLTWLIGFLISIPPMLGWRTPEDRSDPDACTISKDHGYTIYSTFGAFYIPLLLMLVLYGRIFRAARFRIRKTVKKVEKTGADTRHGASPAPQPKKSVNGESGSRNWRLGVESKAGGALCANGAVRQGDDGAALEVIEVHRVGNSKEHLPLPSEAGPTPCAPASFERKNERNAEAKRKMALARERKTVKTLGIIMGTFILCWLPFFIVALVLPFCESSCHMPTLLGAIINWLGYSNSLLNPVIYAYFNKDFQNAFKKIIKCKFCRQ
Description: PDSP Primary Binding target: HTR1A - Compounds are tested at 10 uM concentration, plate are incubated at room temperature in the dark for 90 minutes. Reaction are stopped by vacuum filtration onto 0.3% polyethyleneimine soaked filter mats using Filtermate harvester. Scintilation cocktail is then melted onto microwave-dried filters on a hot plate and the radio activity is counted in Microbia counter.

Experiment [4] has as its target T3, D(4) dopamine receptor (Homo sapiens) (UniProt P21917).
T3 sequence (whole entry): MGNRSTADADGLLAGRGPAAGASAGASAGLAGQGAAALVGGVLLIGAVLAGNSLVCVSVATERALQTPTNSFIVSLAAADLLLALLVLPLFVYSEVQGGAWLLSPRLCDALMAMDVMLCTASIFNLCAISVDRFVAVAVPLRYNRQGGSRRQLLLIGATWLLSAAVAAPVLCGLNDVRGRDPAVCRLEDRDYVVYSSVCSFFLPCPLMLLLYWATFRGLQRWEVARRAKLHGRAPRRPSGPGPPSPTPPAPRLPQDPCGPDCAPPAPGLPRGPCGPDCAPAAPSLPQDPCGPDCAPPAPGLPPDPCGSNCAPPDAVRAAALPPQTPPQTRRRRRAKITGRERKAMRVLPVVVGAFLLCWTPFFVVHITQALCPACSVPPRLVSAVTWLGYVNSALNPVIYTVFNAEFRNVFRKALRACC
Description: PDSP Primary Binding target: DRD4 - Compounds are tested at 10 uM concentration, plate are incubated at room temperature in the dark for 90 minutes. Reaction are stopped by vacuum filtration onto 0.3% polyethyleneimine soaked filter mats using Filtermate harvester. Scintilation cocktail is then melted onto microwave-dried filters on a hot plate and the radio activity is counted in Microbia counter.

In experiment [5] the target is D(1A) dopamine receptor (Homo sapiens) (UniProt P21728).
Chain of D(1A) dopamine receptor (Homo sapiens) (P21728 whole entry): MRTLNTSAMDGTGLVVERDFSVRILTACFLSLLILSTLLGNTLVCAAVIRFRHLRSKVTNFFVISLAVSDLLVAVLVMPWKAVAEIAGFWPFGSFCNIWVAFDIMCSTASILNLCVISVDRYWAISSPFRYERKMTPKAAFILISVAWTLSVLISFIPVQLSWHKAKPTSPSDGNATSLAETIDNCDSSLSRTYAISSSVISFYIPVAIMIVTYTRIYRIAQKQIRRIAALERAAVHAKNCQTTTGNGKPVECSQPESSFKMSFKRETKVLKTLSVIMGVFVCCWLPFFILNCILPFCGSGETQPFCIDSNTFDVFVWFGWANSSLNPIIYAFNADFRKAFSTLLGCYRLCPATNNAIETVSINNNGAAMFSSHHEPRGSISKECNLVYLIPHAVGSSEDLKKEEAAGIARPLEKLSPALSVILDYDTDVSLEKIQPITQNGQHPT
Description: PDSP Primary Binding target: DRD1 - Compounds are tested at 10 uM concentration, plate are incubated at room temperature in the dark for 90 minutes. Reaction are stopped by vacuum filtration onto 0.3% polyethyleneimine soaked filter mats using Filtermate harvester. Scintilation cocktail is then melted onto microwave-dried filters on a hot plate and the radio activity is counted in Microbia counter.
In experiment [6] the target is T4, Alpha-2A adrenergic receptor (Homo sapiens) (UniProt P08913).
T4 sequence (whole entry): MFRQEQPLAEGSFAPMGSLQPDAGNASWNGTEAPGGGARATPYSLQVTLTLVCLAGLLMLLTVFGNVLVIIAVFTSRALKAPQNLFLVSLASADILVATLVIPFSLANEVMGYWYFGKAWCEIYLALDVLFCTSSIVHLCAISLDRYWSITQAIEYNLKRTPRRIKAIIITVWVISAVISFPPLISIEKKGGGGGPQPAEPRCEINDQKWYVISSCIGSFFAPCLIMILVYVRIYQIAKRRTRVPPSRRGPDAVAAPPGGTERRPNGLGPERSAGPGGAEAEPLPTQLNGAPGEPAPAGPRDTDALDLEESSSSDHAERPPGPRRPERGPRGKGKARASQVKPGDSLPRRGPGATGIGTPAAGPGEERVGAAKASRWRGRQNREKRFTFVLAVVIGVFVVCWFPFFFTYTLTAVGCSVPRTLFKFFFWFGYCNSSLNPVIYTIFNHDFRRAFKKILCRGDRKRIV
Description: PDSP Primary Binding target: ADRA2A - Compounds are tested at 10 uM concentration, plate are incubated at room temperature in the dark for 90 minutes. Reaction are stopped by vacuum filtration onto 0.3% polyethyleneimine soaked filter mats using Filtermate harvester. Scintilation cocktail is then melted onto microwave-dried filters on a hot plate and the radio activity is counted in Microbia counter.

The target in experiment [7] is T5, Alpha-1B adrenergic receptor (Homo sapiens) (UniProt P35368).
T5 sequence (whole entry): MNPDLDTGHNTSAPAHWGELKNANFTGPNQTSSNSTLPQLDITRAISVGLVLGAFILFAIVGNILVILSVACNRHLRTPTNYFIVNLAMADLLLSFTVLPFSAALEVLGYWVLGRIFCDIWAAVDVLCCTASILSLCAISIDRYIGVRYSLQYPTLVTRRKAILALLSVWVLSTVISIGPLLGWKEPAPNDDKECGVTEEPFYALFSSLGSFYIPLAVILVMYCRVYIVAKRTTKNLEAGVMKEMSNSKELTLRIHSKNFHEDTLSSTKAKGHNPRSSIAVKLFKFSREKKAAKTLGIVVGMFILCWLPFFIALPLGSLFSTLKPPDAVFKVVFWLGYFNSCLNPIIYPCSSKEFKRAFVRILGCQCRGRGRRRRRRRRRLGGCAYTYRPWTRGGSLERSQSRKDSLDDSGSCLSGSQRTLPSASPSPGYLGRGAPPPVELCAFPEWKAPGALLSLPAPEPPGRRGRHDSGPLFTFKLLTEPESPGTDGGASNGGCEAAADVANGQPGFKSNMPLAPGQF
Description: PDSP Primary Binding target: ADRA1B - Compounds are tested at 10 uM concentration, plate are incubated at room temperature in the dark for 90 minutes. Reaction are stopped by vacuum filtration onto 0.3% polyethyleneimine soaked filter mats using Filtermate harvester. Scintilation cocktail is then melted onto microwave-dried filters on a hot plate and the radio activity is counted in Microbia counter.

Chain of Kappa-type opioid receptor (Homo sapiens) (P41145 whole entry): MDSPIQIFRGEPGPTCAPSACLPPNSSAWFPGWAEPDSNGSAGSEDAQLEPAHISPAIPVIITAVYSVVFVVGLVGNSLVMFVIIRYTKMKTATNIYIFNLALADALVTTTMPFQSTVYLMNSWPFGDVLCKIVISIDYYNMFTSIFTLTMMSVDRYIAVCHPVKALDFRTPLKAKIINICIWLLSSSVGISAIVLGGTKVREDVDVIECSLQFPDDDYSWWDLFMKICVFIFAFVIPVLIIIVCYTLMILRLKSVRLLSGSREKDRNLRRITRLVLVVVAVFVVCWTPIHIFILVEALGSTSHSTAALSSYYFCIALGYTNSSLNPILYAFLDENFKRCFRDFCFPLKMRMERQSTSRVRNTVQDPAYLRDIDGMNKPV

With `CCC[C@H](Oc1cc(C)c(-n2cc(C(F)(F)F)cn2)c(C)c1)c1ccc(C(=O)NCCC(=O)O)cc1`, the inhibition was 40.7% in experiment [1]; -0.8% in experiment [2]; -2.47% in experiment [3]; -1.34% in experiment [4]; 20.2% in experiment [5].

For the compound `CN1CCCC(n2nc(Cc3ccc(Cl)cc3)c3ccccc3c2=O)CC1` (stereo unspecified), the inhibition in experiment [6] was 62.3%; in experiment [7], 72.7%; in experiment [2], 93.7%; in experiment [3], 5.72%; in experiment [4], 85.5%; in experiment [5], 57.1%.

With `O=c1ccn([C@@H]2O[C@H](COP(=O)(O)OP(=O)(O)OP(=O)(O)O)[C@@H](O)[C@H]2O)c(=O)[nH]1`, the inhibition in experiment [6] is 11.6%; in experiment [1], 47.6%; in experiment [2], 9.66%; in experiment [3] it was 26.3%; in experiment [4], 53.3%; in experiment [5], 45.1%.

For the compound `CC1=C2C[C@H]3[C@@H](CC=C4C[C@@H](O)CC[C@@]43C)[C@@H]2CC[C@]12O[C@@H]1C[C@H](C)CN[C@H]1[C@H]2C`, the inhibition is -1.14% in experiment [6]; 1.76% in experiment [1]; 13.7% in experiment [7]; 9.39% in experiment [3]; -4.8% in experiment [5].

For the compound `Cc1ccc(O)c([C@H](CCN(C(C)C)C(C)C)c2ccccc2)c1`, the inhibition was 20.2% in experiment [6]; 31% in experiment [1]; 17.4% in experiment [7]; -6.09% in experiment [3]; 35.3% in experiment [4]; -4.98% in experiment [5].

On to `CC1(C)SSC(C)(C)[C@@H](NC(=O)[C@@H](N)Cc2ccc(O)cc2)C(=O)NCC(=O)N[C@@H](Cc2ccccc2)C(=O)N[C@H]1C(=O)O`, for which the inhibition in experiment [6] is 13.7%; in experiment [1], -4.89%; in experiment [7] it was 8.91%; in experiment [3], 3.47%; in experiment [4] it was 49%; in experiment [5], 11.4%.

As to `CNC[C@H](O)c1ccc(O)c(O)c1`, the inhibition is 49.1% in experiment [6]; 2.3% in experiment [7]; -3.44% in experiment [3]; 20.1% in experiment [4]; 10.9% in experiment [5].

As for `N#Cc1c(O)nc(SCc2cccc(F)c2F)nc1C1CC1`, the inhibition is 3.53% in experiment [1]; -9.08% in experiment [7]; -5.1% in experiment [2]; -4.01% in experiment [3]; -4.74% in experiment [4]; -8.29% in experiment [5].

On to `N#Cc1ccc(NC(=O)Nc2ccccc2Br)c2nn[nH]c12`, for which the inhibition is 25.6% in experiment [1]; 13.2% in experiment [7]; 26.9% in experiment [2]; 6.16% in experiment [3]; 13.3% in experiment [4]; 2.97% in experiment [5].

As for `NCCc1cn(S(=O)(=O)c2c(Cl)nc3sccn23)c2ccccc12`, the inhibition is 93.4% in experiment [6]; 32.8% in experiment [1]; 51.4% in experiment [7]; 16.6% in experiment [3]; 38.7% in experiment [4]; 41.2% in experiment [5].

On to `COc1cccc(-c2c(C)n(Cc3c(F)cccc3C(F)(F)F)c(=O)n(C[C@H](NCCCC(=O)O)c3ccccc3)c2=O)c1F`, for which the inhibition is 52.1% in experiment [1]; 1.76% in experiment [2]; -2.18% in experiment [3]; 25.8% in experiment [4]; -9.59% in experiment [5].

Take `COc1ccc2[nH]cc(CCNC(C)=O)c2c1`: the inhibition is 8.96% in experiment [6]; 1.22% in experiment [7]; 5.08% in experiment [3]; 1.97% in experiment [4]; 13.1% in experiment [5].

`c1nc(CC2CCNCC2)c[nH]1`: the inhibition in experiment [6] is 14.5%; in experiment [7], 15.3%; in experiment [3], -10%; in experiment [4], 14.9%; in experiment [5] it was 24.2%.

As to `CCCCCCCCCCCCC/C=C/[C@@H](O)[C@@H](N)COP(=O)(O)O`, the inhibition is 4.33% in experiment [6]; 6.18% in experiment [1]; -1.45% in experiment [7]; -2.94% in experiment [2]; -8.27% in experiment [3]; 2.88% in experiment [5].

For the compound `CC1CCN(CC[C@H]2CCCN2S(=O)(=O)c2cccc(O)c2)CC1`, the inhibition was 65.6% in experiment [6]; 50.4% in experiment [1]; -3.56% in experiment [7]; 0.65% in experiment [3]; 22.1% in experiment [4]; -5.94% in experiment [5].

As to `O=C(O)c1cc(-c2ccc(C3CCNCC3)cc2)c2ccc(-c3ccc(C(F)(F)F)cc3)cc2c1`, the inhibition in experiment [6] was 42.2%; in experiment [1], 19.2%; in experiment [7], 38.4%; in experiment [2], -3.35%; in experiment [3], 51.4%; in experiment [5], 27%.

As to `O=C(O)C1CN(Cc2ccc(-c3nc4cc(Cc5ccccc5F)ccc4s3)c(F)c2)C1`, the inhibition in experiment [1] is 0.93%; in experiment [2] it was 35.8%; in experiment [3], 11.5%; in experiment [4] it was -6.1%; in experiment [5] it was 2.63%.

In the case of `CCOC(=O)c1cc(C#N)c(N2CCC(C(=O)NS(=O)(=O)Cc3ccccc3)CC2)nc1C`, the inhibition in experiment [1] was 3.74%; in experiment [7], -8.97%; in experiment [2] it was 6.09%; in experiment [4] it was 7.97%; in experiment [5] it was 0.26%.

As for `C[C@]1(C(=O)N(CCCC(=O)O)Cc2cccc(Cl)c2)CCN1C(=O)c1csc2ccccc12`, the inhibition in experiment [6] is 10.9%; in experiment [1] it was -5.78%; in experiment [7], -9.59%; in experiment [4] it was 4.3%; in experiment [5], -1.97%.

In the case of `CN[C@@H]1CCc2[nH]c3ccc(C(N)=O)cc3c2C1`, the inhibition was 31% in experiment [6]; 5.76% in experiment [1]; 93.5% in experiment [7]; 18.2% in experiment [2]; 56.4% in experiment [3]; 64.7% in experiment [4].

On to `Cc1cc([C@@H](C)Nc2cccc(-c3cc(C)c(C(=O)N[C@@H](C)C(=O)O)c(C)c3)c2)ccc1Cl`, for which the inhibition in experiment [1] was 0.51%; in experiment [2], -0.82%; in experiment [3] it was 3.66%; in experiment [4], 31.4%; in experiment [5], 14%.

The term inhibition denotes the change of the read-out against control, counted positive when it falls.
